ChEMBL document CHEMBL3988442, “University of Dundee, Small-Polar-MMV Screening Library” (2021)

Molecular target: Tryptophan--tRNA ligase (Mycobacterium tuberculosis (strain ATCC 25618 / H37Rv), UniProt P9WFT3)
Experiment: Biochemical assay for Mt-TrpRS
Assay type: functional

Chain of Tryptophan--tRNA ligase (P9WFT3 whole entry): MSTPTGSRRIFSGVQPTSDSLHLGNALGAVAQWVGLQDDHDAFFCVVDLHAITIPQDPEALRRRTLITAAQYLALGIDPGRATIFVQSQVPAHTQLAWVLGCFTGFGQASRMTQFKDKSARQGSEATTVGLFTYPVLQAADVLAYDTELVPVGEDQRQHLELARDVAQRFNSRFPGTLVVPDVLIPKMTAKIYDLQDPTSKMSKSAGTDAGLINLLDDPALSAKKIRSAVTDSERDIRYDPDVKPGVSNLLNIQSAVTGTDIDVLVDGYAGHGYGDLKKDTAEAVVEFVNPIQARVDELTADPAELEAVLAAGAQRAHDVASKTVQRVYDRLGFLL

## CC(C)C(NC(=O)C1CCCC1)c1cc(O)nc(-c2cccnc2)n1 (stereo not given)
  IC50: > 195 µM

## O=C(c1ccccn1)N1CCC(c2nc(O)cc(-c3ccncc3)n2)C1 (stereo not given)
  IC50: > 195 µM

## CCc1nnc(CN2CCCCC2Cn2cncn2)o1 (stereo not given)
  IC50: > 195 µM

## COCC1CC2(CCN(Cc3nccs3)CC2)CN1Cc1ccccn1 (stereo not given)
  IC50: > 195 µM

## CCCC(=O)N1CCCCC1c1nccc(C)n1 (stereo not given)
  IC50: > 195 µM

## Cc1cc(CS(=O)(=O)CC(=O)N2c3ccccc3CC2C)no1 (stereo not given)
  IC50: > 195 µM

## CN1C(=O)CC(C(=O)O)C12CCN(Cc1ccc(Cl)c(F)c1)CC2 (stereo not given)
  IC50: > 195 µM

## O=C(O)C1(Cc2cc(-c3ccc(F)cc3)no2)CCOCC1
  IC50: > 195 µM

## CC(C)N(C)Cc1cncc2c1CCN(CC(=O)N(C)C)C2
  IC50: > 195 µM

## c1cnc(N2CCCC(c3n[nH]c4ncccc34)C2)nc1 (stereo not given)
  IC50: > 195 µM

## CN(C)C(=O)c1cncnc1-c1ccc(CNC(=O)C2CCCO2)cc1 (stereo not given)
  IC50: > 195 µM

## COc1ccc(-c2cc(C3CCCNC3)ccn2)cc1 (stereo not given)
  IC50: > 195 µM

## CC(C)c1cc(CN2CCC(N)CC2)on1
  IC50: > 195 µM

## Cc1cc(C)n(CC2CCCN2C(=O)c2c(C)noc2C)n1 (stereo not given)
  IC50: > 195 µM

## Fc1ccc2c(c1)C1(CCNCC1)CC2NC1CC1 (stereo not given)
  IC50: > 195 µM

## COc1ccc2c(c1)CC(NCCCn1cc(C)cn1)CC2 (stereo not given)
  IC50: > 195 µM

## CC(=O)N1CCc2nc(-c3ccc(F)cc3)nc(NC(C)C)c2CC1
  IC50: > 195 µM

## O=C1CN(CC2CC2)Cc2nc(NCCc3ccccn3)sc21
  IC50: > 195 µM

## O=C(c1cc2c(s1)CCC2)N1CCCC(c2cnccn2)C1 (stereo not given)
  IC50: > 195 µM

## CS(=O)(=O)NC1CCN(C(=O)CCC2CCCO2)CC1 (stereo not given)
  IC50: > 195 µM

## CN(C)c1nccc(C2CCN(C3CCCCC3O)CC2)n1 (stereo not given)
  IC50: > 195 µM

## COc1ccccc1NC(=O)NCCCC(=O)Nc1cn[nH]c1
  IC50: > 195 µM

## Cc1cc(C)n(NC(=O)c2ccccc2F)c(=O)c1
  IC50: > 195 µM

## O=C(NC1CC1)N1C[C@@H]2CCN(C(=O)c3cscn3)[C@@H]2C1
  IC50: > 195 µM

## O=C1CN(CC2CC2)Cc2nc(NCc3ccccc3)sc21
  IC50: > 195 µM

## O=C1CO[C@@H]2CN(S(=O)(=O)c3ccc(F)cc3)C[C@H]2N1
  IC50: > 195 µM

## CC(C)OCCCNC(=O)CS(=O)(=O)Cc1ccc(Cl)cc1
  IC50: > 195 µM

## CNC(=O)c1nc(CN2CCOC(C(F)(F)F)C2)no1 (stereo not given)
  IC50: > 195 µM

## CCC(CC#N)n1ccc(C(F)(F)F)n1 (stereo not given)
  IC50: > 195 µM

## COCCn1c2c(ccc1=O)CC(NCc1cnn(C)c1)CC2 (stereo not given)
  IC50: > 195 µM

## CS(=O)(=O)N1CCCC(Cc2cncc(Br)c2)CC1 (stereo not given)
  IC50: > 195 µM

## CCOC(=O)COc1ccc(C(C)=O)c(O)c1
  IC50: > 195 µM

## CC(=O)NC[C@]1(O)CCN(C(=O)c2ccc(F)c(Cl)c2)C[C@H]1O
  IC50: > 195 µM

## CC(=O)c1ccc(OCC(C)O)cc1O (stereo not given)
  IC50: > 195 µM

## Cn1ncc(NC(=O)c2noc3c2CCCC3)c1C(N)=O
  IC50: > 195 µM

## C[C@]1(O)CN(CCO)CC[C@@H]1Oc1cccc(F)c1
  IC50: > 195 µM

## Cc1cccc(Cn2cc(C)c(N)n2)c1
  IC50: > 195 µM

## O[C@@H]1CN(Cc2ccncc2)C[C@H]1Oc1ccccc1
  IC50: > 195 µM

## c1cncc(CN2CCc3ncnc(C4CC4)c3CC2)c1
  IC50: > 195 µM

## CCOCC(=O)N1C[C@@H]2CC[C@H](Oc3ccccc3)[C@@H]2C1
  IC50: > 195 µM

## CSCC(C)(O)CNc1ncccc1I (stereo not given)
  IC50: > 195 µM

## COc1c(C(=O)N2CCNC(=O)C2)cnc2c1c(C)nn2C
  IC50: > 195 µM

## c1cnc(N2CCC(c3n[nH]c4ncccc34)C2)nc1 (stereo not given)
  IC50: > 195 µM

## O=C(NCC1CC2(CO1)CN(c1ncccn1)C2)C1CCC1 (stereo not given)
  IC50: > 195 µM

## Cc1cc(CNC(=O)N(Cc2ccc(F)cc2F)C2CC2)no1
  IC50: > 195 µM

## Cc1nn(C)cc1C(=O)N1CCC(CSc2ccccc2)C1 (stereo not given)
  IC50: > 195 µM

## Cn1cc(C(=O)NCc2cncc3c2CCNC3)cn1
  IC50: > 195 µM

## NC(=O)C1(CCCc2ccncc2)CCCN1 (stereo not given)
  IC50: > 195 µM

## CCN(C(=O)c1nc2c(s1)CCCN2C)C(C)C
  IC50: > 195 µM

## CCc1n[nH]c(C(=O)NCCn2ccc(C)n2)c1C
  IC50: > 195 µM

## O=C1CCCN1CCCC(=O)N1CCCC(Cc2cccnc2)C1 (stereo not given)
  IC50: > 195 µM

## Cc1cnn(-c2ccc(S(N)(=O)=O)cc2F)c1
  IC50: > 195 µM

## Cn1cnc(S(=O)(=O)N2CC3(CCN(c4ccccc4)C3)C2)c1
  IC50: > 195 µM

## c1cnc(N2CCO[C@H]3CN(CC4CCOC4)C[C@H]32)cn1 (stereo not given in full)
  IC50: > 195 µM

## CNC(=O)c1cc(C2CCCNC2)n[nH]1 (stereo not given)
  IC50: > 195 µM

## COc1ccccc1OCCc1nnc(NC(=O)C2CC23CCC3)s1 (stereo not given)
  IC50: > 195 µM

## CC1CCN(CCCNC(=O)NC(C)c2nncn2C)CC1 (stereo not given)
  IC50: > 195 µM

## O=C(c1cnccn1)N1CCC2(CCCN(Cc3ccoc3)C2)C1 (stereo not given)
  IC50: > 195 µM

## N#Cc1cnc(N2CCC3(CC2)OCCO3)nc1N
  IC50: > 195 µM

## Fc1ccc(Cc2cnc(C3CCCN3)cn2)cc1 (stereo not given)
  IC50: > 195 µM

## CN1CC(c2cc(O)nc(NCc3ccc(Cl)cc3)n2)CC1=O (stereo not given)
  IC50: > 195 µM

## CC(=O)N1CCN(CC(N)=O)CC(COc2ccccc2)C1 (stereo not given)
  IC50: > 195 µM

## Cc1cccc(NCc2nc(C)ccc2O)c1
  IC50: 81.8 µM

## CC(C)N1CCO[C@@H]2CN(C(=O)NCc3ccccc3)CC[C@@H]2C1
  IC50: > 195 µM

## Cn1cc(CCN2CCOC(CNc3cccnn3)C2)cn1 (stereo not given)
  IC50: > 195 µM

## Cc1ncsc1CN1CCN(C2CCOCC2)CC(C(N)=O)C1 (stereo not given)
  IC50: > 195 µM

## CCn1ncc2c1C(COC)N(C(=O)c1cscn1)CC2 (stereo not given)
  IC50: > 195 µM

## O=S1(=O)CCC(N(Cc2nc3ccccc3o2)Cc2cccs2)C1 (stereo not given)
  IC50: > 195 µM

## NC(=O)Nc1cc(F)ccc1SCC(F)F
  IC50: > 195 µM

## COCC(=O)N1CCC(C(=O)c2cc(C)cnc2N)CC1
  IC50: > 195 µM

## c1csc(CN2C[C@H](OCC3CC3)[C@H]3COC[C@H]32)n1
  IC50: > 195 µM

## CN(CCC(=O)N1CCCC(Cc2cccnc2)C1)Cc1cccnc1 (stereo not given)
  IC50: > 195 µM

## Nc1cnc(-c2ccc(F)cc2Cl)cn1
  IC50: > 195 µM

## COc1cc(CNc2cnn(CC(F)F)c2)ccc1O
  IC50: > 195 µM

## CNC(=O)CCc1cc(C)nc(C2CCCCN2)n1 (stereo not given)
  IC50: > 195 µM

## COCc1cncc2c1CCN(C(=O)c1cscn1)C2
  IC50: > 195 µM

## CC(C)(C)OC(=O)N1CC(=O)N(CCc2ccccc2)CC(O)C1 (stereo not given)
  IC50: > 195 µM

## N#Cc1cn[nH]c1NCc1cc(Br)ccc1O
  IC50: 31.4 µM

## O=S(=O)(c1ccccc1)N1C(CN2CCOCC2)[C@]2(O)CC[C@H]1CC2 (stereo not given in full)
  IC50: > 195 µM

## CNC(=O)c1cc2ccccc2n1C
  IC50: > 195 µM

## CN(CC1(O)CCN(c2ccccn2)C1)C(=O)Cc1ccsc1 (stereo not given)
  IC50: > 195 µM

## Cc1nc(N(C)CCN(C)C)c2cnn(C)c2n1
  IC50: > 195 µM

## CC1(C(=O)N2CCOCC2)CN(Cc2ncc[nH]2)CCO1 (stereo not given)
  IC50: > 195 µM

## CCCC1CN(CCOc2ccccc2)C(=O)c2cccnc2O1 (stereo not given)
  IC50: > 195 µM

## Cc1cc(N2CCC(c3n[nH]c4nccnc34)C2)ncn1 (stereo not given)
  IC50: > 195 µM

## Cc1cc(N2CCC(c3n[nH]c4nccnc34)CC2)ncn1
  IC50: > 195 µM

## Cc1cnn(CC2CCCN2Cc2nnc(C(C)C)o2)c1 (stereo not given)
  IC50: > 195 µM

## O=C(O)CCc1nc2nccc(-c3ccc(F)cc3)n2n1
  IC50: > 195 µM

## Cc1nccn1CC1CCCN(C(=O)c2cnn(C)c2)C1 (stereo not given)
  IC50: > 195 µM

## CC1CN(Cc2ccccc2)CCCN1CCS(C)(=O)=O (stereo not given)
  IC50: > 195 µM

## Cc1cn(Cc2ccccc2)nc1N
  IC50: > 195 µM

## Cc1ccc(CNC(=O)c2ccc(CNS(C)(=O)=O)o2)cc1F
  IC50: > 195 µM

## CCS(=O)(=O)N1CCc2c(COCc3ccncc3)cncc2C1
  IC50: > 195 µM

## CO[C@H]1CN(Cc2ccc(F)c(F)c2)C[C@@]12CCCO2
  IC50: > 195 µM

## CC(C)(C)C(=O)CN1Cc2ccccc2NCCC1=O
  IC50: > 195 µM
